Experiments:
Fathead Minnow = experiment: Toxicity, LC50 Fathead Minnow; settings: in vivo
Experimental: Product A was evaluated for toxicity using various tests.

Coreflood = settings: flow back versus pre-treatment permeability
Experimental: Two corefloods were carried out simultaneously on two Bandera outcrop cores (1.5″ diameter by 3″ length), using a Scaled Solutions dual coreflood apparatus. The composition of these cores is set out in the table below:
Both cores were wrapped with PTFE tape and cased in heat shrink tubing prior to insertion into a Viton sleeve and mounted in a Hassler type core holder with a confining pressure of 1200 psi. Both cores were then flushed with synthetic brine at 1 mL/min for at least 2 hours and until the differential pressure was stable. Brine was flushed at 0.5 mL/min overnight.
Both cores were saturated with synthetic brine under ambient conditions in the forward direction at 1 mL/min for 10 minutes, 2 mL/min for 10 minutes, 3 mL/min for 10 minutes, and 4 mL/min for 2 hours and until the differential pressure was stable. After a stable differential pressure was achieved, the permeability to brine was measured in the forward flow by flooding at 4, 3, 2, 1 mL/min at room temperature.
Brine was then injected into both cores in the forward direction at 1 mL/min until the oven reached a temperature of 80° C. […] Following plug saturation, the permeability of each core to synthetic brine was measured in the forward flow by flooding at 4, 3, 2, and 1 mL/min at 80° C. […]
Both cores were injected with synthetic brine at 2 mL/min with effluent samples being collected. The samples were analyzed by ICP. […]

[1] = Compatibility test of scale inhibitors with Product A in synthetic brine; assay type: physicochemical; parameters: key: C—Clear; P—Precipitate; settings: 10% scale inhibitor solution mixed with 10% Product A solution in synthetic brine
Excerpt: Individual solutions (Solutions 1B through 1G) of 10% Product B, C, D, E, F and G, respectively, in a synthetic brine (see the table below showing the synthetic brine composition) were mixed with a 10% solution (Solution 2) of Product A in the synthetic brine. The two sets of solutions were mixed with Solution 2 (i. e., each of Solutions 1B through 1G were mixed with Solution 2) at ratios of 10:90, 30:70, 50:50, 70:30 and 90:10 to indicate that no precipitate would form at any concentration in the mixing concentration range from 10:90 to 90:10. These compatibility screening tests indicate that it is unlikely for any incompatibility to be experienced during deployment and flow back of a squeeze treatment. Any incompatibilities under ambient conditions were observed visually from solution clarity and/or precipitate. The samples were then heated to the test temperature (80° C.) and any further incompatibilities after 2 and 24 hours recorded.

[2] = ratio printed 10:90 (fifth column)
[3] = ratio printed 30:70 (fourth column)

Row | Compound | LC50 Fathead Minnow (Fathead Minnow) | Permeability Recovery (Coreflood) [%] | Permeability Recovery (Coreflood; listed as Brine/10% Product B) [%] | Clarity of Mixed Solutions ([1]; ratio 10:90 (first column)) | Clarity of Mixed Solutions ([1]; ratio 30:70 (second column)) | Clarity of Mixed Solutions ([1]; ratio 50:50) | Clarity of Mixed Solutions [1, 2] | Clarity of Mixed Solutions [1, 3]
1 | C[N+](C)(C)CC(O)C[N+](C)(C)C.[Cl-].[Cl-] [Product A, 1,3-propandiaminium, 2-hydroxy-N,N,N,N′,N′,N′-hexamethyl-, dichloride] | >1,000 mg/L |  |  |  |  |  |  | 
2 | O=P(O)(O)CN(CCCCCCN(CP(=O)(O)O)CP(=O)(O)O)CCCCCCN(CP(=O)(O)O)CP(=O)(O)O [Product B, BHMT phosphonate] |  | 75 | 75 | C | C | C | C | C
3 | DETA phosphonate [Product C] |  |  |  | C | C | C | C | C

Reference: US9803450B2, “Use of oligo-quaternary compositions to increase scale inhibitor lifetime in a subterranean formation” (Ecolab USA Inc., priority 2012, dated 2017)
